Earlier results on two molecules are cited in US20050180917A1, “Delivery of neutron capture elements for neutron capture therapy” (priority 2001, published 2005).

The conditions of series [1]: in vivo.
The conditions of series [2]: review of prior art.

For the molecule `N[C@@H](Cc1ccc(B(O)O)cc1)C(=O)O` [BPA, 4-dihydroxyborylphenylalanine], the Absolute tumour concentration in series [1] was 16.5 µg/g. The toxicity entry in series [2] was “low toxicity”.
In the case of “sodium mercaptoundecahydrododecaborate [BSH]”, the Absolute tumour concentration in series [1] is 6.9 µg/g. In series [2], the toxicity entry is “low toxicity”.
